Values of other authors in patent US20240108697A1, “ANTIMICROBIAL COMPOSITIONS” (Matoke Holdings Limited, priority 2020, published 2024).

How the values were obtained:
[1] = at 20° C. and 1 atm
[2] = tested on: Human Fibroblast Cell Migration; settings: in the presence of 30 mM glucose

SMILES | solubility [1] | mobilisation of fibroblasts in a cell culture system [2]
O=C(CO)[C@@H](O)[C@H](O)[C@H](O)CO [Fructose] | about 375 g/100 g water | –
O=C[C@H](O)[C@@H](O)[C@H](O)[C@H](O)CO [Glucose] | 90 g/100 g water | poor mobilisations of fibroblasts
